From EP0585371B1, “AROMATIC OLIGOMERIC COMPOUNDS USEFUL AS MIMICS OF BIOACTIVE MACROMOLECULES” (RHONE-POULENC RORER INTERNATIONAL (HOLDINGS) INC., priority 1991, dated 1992)

What was measured:
[1] = biological target: T1, ESb mouse lymphoma heparanase (Mus musculus, UniProt Q6YGZ1); assay: Inhibition of heparanase activity (degradation of labeled ECM heparan sulfate); assay type: biochemical; settings: 24 hours incubation with labeled ECM
T1 construct: endogenous in cells; host or cells: ESb mouse lymphoma cells
T1 sequence (Q6YGZ1 28-535): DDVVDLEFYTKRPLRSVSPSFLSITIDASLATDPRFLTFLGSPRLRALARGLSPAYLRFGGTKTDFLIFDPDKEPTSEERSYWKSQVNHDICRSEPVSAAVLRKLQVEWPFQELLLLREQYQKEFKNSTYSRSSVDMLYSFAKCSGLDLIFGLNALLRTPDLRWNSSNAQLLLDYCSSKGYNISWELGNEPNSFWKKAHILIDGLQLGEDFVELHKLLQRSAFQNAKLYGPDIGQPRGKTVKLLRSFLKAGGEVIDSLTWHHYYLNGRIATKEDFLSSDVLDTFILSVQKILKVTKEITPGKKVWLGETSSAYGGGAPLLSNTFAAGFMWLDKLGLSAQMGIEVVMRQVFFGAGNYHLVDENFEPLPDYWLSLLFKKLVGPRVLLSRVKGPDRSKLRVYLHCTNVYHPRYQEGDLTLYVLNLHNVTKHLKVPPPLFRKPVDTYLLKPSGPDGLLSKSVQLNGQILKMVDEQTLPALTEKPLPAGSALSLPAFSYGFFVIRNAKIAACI
Protocol: Heparanase is an endoglucuronidase capable of degrading […] (HS) at specific intrachain sites.
The ability of compounds of the present invention to inhibit lymphomacell derived heparanase is tested in the assay system described by Vlodavsky et al., Cancer Research 43, 2704-2711 (1983). […] labeled ECM is incubated for 24 hours with ESb mouse lymphoma heparanase in the presence of various concentrations of the oligomers tested. Degradation of the HS is followed by gel filtration of the supematants. Heparanase activity is expressed as the total amount of labeled low-molecular-weight fragments released from the EMC substrate.

[2] = tested on: human fixed thrombin activated platelets; assay: Platelet aggregation inhibition (fibrinogen-induced); assay type: cell-based; settings: human fibrinogen added
Protocol: The method for measuring platelet aggregation inhibition is essentially that of Ruggeri, et al., Proc. Natl. Acad. Sci. USA, 83, 5708-5712 (1986), using formalin-fixed platelets as prepared by Plow, et al., Proc. Natl. Acad. Sci. USA, 79, 3711-3715 (1982). A given amount of the compound of the present invention or other compound to be tested (10 to 100 µl of a 1 mg/ml solution) is incubated at 37°C with 400 µl of human fixed thrombin activated platelets for 2 minutes. 12.5 µl of human fibrinogen solution is added and aggregation is monitored using a platelet aggregation profiler (Model PAP-4). Controls consist of fibrinogen added to incubated platelets and the resulting aggregation is considered as 100%. Percent inhibition in the presence of a given concentration of test compound versus concentration of the compound is plotted and the concentration required to give 50% inhibition (IC50) is determined.

- % Inhibition of Heparanase Activity (5µg/ml) [1]: 2%
- Platelet Aggregation IC50 [2]: >1000 µg/mL
SMILES: Cc1cc(O)c(Cc2cc(O)c(Cc3cc(O)c(Cc4cc(O)c(Cc5cc(O)c(Cc6cc(O)c(Cc7cc(O)c(Cc8cc(O)ccc8CCC(=O)O)cc7CCC(=O)O)cc6CCC(=O)O)cc5CCC(=O)O)cc4CCC(=O)O)cc3CCC(=O)O)cc2CCC(=O)O)cc1CCC(=O)O [Ex 4, 5-[4-[4-[4-[4-[4-[4-[[2-(2-carboxyethyl)-5-hydroxy]benzyl]-[2-(2-carboxyethyl)-5-hydroxy]benzyl]-[2-(2-carboxyethyl)-5-hydroxy]benzyl]-[2-(2-carboxyethyl)-5-hydroxy]benzyl]-[2-(2-carboxyethyl)-5-hydroxy]benzyl]-[2-(2-carboxyethyl)-5-hydroxy]benzyl]-[2-(2-carboxyethyl)-5-hydroxy]benzyl]-4-hydroxy-2-methylhydrocinnamic acid]
